Measured values: publication PMC13162264, “Chemoproteomic Elucidation of β‑Lactam Drug Targets in Mycobacterium abscessus” (ACS Infectious Diseases, 2026)
≈ marks a conversion by molar mass, not a printed value. Where two headings read alike, the source gives them in different places.

Assays:
DacB2 [1] = molecular target: T1, DacB2 (Mycobacteroides abscessus, UniProt B1MDJ1); assay: β-lactam competition of ABP labeling, recombinant enzyme; settings: drug 500 μM, 30 min 37 °C, then 10 μM Mero-sCy5 or Bocillin FL
T1 sequence (B1MDJ1 entry or part of it): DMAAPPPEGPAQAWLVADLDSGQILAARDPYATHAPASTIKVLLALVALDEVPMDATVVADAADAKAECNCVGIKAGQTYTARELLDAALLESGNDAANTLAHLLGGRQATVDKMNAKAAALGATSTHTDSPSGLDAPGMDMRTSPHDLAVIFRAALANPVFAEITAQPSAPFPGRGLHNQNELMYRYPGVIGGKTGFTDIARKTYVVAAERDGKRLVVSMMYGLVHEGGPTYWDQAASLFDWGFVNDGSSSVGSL

Ldt4 [2] = molecular target: T2, Ldt4 (Mycobacteroides abscessus, UniProt B1MKW1); assay: as above; type: binding, Mycobacterium abscessus; settings: drug 500 μM, 30 min 37 °C, then 10 μM Mero-sCy5 or Bocillin FL
T2 sequence (B1MKW1 entry or part of it): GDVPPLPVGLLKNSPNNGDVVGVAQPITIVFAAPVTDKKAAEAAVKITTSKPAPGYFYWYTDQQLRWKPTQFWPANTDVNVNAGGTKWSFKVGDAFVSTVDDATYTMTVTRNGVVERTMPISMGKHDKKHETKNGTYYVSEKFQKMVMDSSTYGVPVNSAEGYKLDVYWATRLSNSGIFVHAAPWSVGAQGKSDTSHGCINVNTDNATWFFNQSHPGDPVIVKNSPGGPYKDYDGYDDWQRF

[3] = test system: β-lactam targets in M9510 whole-cell lysates; assay: β-lactam competition of Mero-sCy5 labeling in whole-cell lysates; type: binding, Mycobacterium abscessus subsp. massiliense; settings: drug 1 mM, then Mero-sCy5 5 μM
[4] = test system: β-lactam targets in Mab 19977 whole-cell lysates; assay: as above; type: binding, Mycobacterium abscessus subsp. abscessus; settings: Mab 19977 lysate; drug 1 mM, then Mero-sCy5 5 μM
[5] = test system: Mab 19977 (ATCC 19977, subsp. abscessus); set-up: method as in not given; settings: supplemented Middlebrook 7H9 broth, reported values, ref not given; cited from earlier work
[6] = test system: M9510 (clinical strain, subsp. massiliense); set-up: method as in not given; settings: supplemented Middlebrook 7H9 broth, reported values, ref not given; cited from earlier work
MAB_0330 [7] = molecular target: T3, MAB_0330 (Mycobacteroides abscessus, UniProt B1MFM9); assay: β-lactam competition of ABP labeling, recombinant enzyme; type: binding; settings: drug 500 μM, 30 min 37 °C, then 10 μM Mero-sCy5 or Bocillin FL
T3 sequence (B1MFM9 entry or part of it): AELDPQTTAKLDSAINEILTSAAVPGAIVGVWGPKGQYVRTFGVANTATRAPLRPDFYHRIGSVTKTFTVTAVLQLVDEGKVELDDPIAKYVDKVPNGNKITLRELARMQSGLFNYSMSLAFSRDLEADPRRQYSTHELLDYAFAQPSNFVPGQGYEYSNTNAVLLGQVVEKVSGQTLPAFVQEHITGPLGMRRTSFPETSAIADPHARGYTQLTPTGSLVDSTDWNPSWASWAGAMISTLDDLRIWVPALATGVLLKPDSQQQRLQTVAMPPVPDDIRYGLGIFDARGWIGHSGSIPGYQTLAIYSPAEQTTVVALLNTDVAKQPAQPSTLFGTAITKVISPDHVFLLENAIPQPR

[8] = test system: M. abscessus subsp. abscessus (n = 1344 isolates); set-up: method as in Hunkins et al.; settings: ref Hunkins et al.; cited from earlier work
[9] = test system: M. abscessus subsp. massiliense (n = 754 isolates); set-up: method as in Hunkins et al.; settings: ref Hunkins et al.; cited from earlier work
Ldt4 [10] = molecular target: T2, Ldt4; assay: β-lactam IC50 by drug treatment then Bocillin FL labeling, in-gel fluorescence; type: binding, Mycobacterium abscessus
MAB_0330 [11] = molecular target: T3, MAB_0330; assay: as above; type: binding
MAB_4800 = MAB_4800 (Mycobacteroides abscessus, UniProt B1MM83); assay: as above; type: binding
MAB_4800, sequence (B1MM83 entry or part of it): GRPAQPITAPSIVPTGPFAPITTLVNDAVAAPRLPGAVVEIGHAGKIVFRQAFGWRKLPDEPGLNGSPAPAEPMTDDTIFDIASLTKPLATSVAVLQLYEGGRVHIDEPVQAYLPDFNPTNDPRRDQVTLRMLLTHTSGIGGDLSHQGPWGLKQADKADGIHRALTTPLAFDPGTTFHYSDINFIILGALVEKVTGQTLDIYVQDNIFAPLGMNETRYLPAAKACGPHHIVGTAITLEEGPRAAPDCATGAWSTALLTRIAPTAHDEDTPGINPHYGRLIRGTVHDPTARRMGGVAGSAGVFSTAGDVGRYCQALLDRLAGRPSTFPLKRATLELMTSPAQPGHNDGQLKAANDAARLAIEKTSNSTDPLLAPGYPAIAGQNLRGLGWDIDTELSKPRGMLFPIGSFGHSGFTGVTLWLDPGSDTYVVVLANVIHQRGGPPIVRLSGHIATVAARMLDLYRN

DacB2 [12] = molecular target: T1, DacB2; assay: as above; type: binding, Mycobacterium abscessus
[13] = human, in vivo; cited from earlier work
PbpB = PbpB (Mycobacteroides abscessus, UniProt B1MP31); assay: β-lactam IC50 by drug treatment then Bocillin FL labeling, in-gel fluorescence; type: binding
PbpB, sequence (B1MP31 entry or part of it): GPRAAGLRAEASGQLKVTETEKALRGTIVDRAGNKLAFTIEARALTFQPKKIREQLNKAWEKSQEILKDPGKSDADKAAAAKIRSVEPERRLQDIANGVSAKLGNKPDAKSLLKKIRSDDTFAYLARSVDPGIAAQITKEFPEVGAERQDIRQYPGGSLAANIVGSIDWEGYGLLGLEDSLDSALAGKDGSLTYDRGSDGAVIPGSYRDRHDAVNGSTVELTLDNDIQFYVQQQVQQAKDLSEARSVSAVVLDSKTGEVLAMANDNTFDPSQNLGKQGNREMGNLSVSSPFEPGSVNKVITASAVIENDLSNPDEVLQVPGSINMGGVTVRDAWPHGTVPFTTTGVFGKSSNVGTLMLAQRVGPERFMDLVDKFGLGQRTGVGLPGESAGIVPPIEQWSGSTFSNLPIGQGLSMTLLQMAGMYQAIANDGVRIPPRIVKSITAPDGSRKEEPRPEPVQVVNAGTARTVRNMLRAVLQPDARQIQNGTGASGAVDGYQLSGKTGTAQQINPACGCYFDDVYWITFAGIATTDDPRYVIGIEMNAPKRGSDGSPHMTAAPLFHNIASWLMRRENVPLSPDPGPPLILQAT

[14] = test system: M9510 (clinical strain, subsp. massiliense); assay: Reported MIC in supplemented Middlebrook 7H9 broth; type: cell-based, Mycobacterium abscessus subsp. massiliense; settings: from past characterization of M9510, ref not given
[15] = molecular target: Ldt4, PbpB, DacB2, and MAB_4800; assay: β-lactam IC50, range over the four enzymes; type: binding, Mycobacterium abscessus
[16] = test system: M9510 whole-cell lysates (REP and CS); settings: 10 μM probe
Description: (§1) (D) Mero-sCy5- and (E) Bocillin FL-labeled 19977 and M9510 lysates (30 μg) were resolved by SDS-PAGE (12 μg/lane) and scanned for fluorescent signal.
(§2) Normalized lysates were ABP-labeled, resolved by SDS-PAGE, and gels were scanned for fluorescent signal (Figure S3).
(§3) In-Gel Analysis of Mero-sCy5 and Bocillin FL Binding
(§4) Normalized total protein lysates (30 μg) were labeled with 10 μM Meropenem-sulfoCy5 6
(§5) (Mero-sCy5) or 10 μM Bocillin FL (Invitrogen) for 60 min at RT, protected from light.
(§6) Labeling reactions were quenched by the addition of 1x TCEP loading dye (5X stock:
(§7) glycerol). Samples were heated to 75 °C for 10 min and resolved (12 μg/lane) via SDS-
(§8) PAGE (Criterion Bis-Tris gels, XT-MES running buffer, Bio-Rad). Gels were de-stained
(§9) of free probe overnight (30% methanol, 10% acetic acid in water) and scanned using
(§10) Amersham Typhoon imager (Cytiva). Adjustment of image brightness and contrast and
(§11) band intensity quantification were performed with Fiji7. Total protein staining was done
(§12) using Coomassie R-250 (Thermo Scientific, CAS 6104-58-1) (Figure S3).

[17] = test system: Mab 19977 whole-cell lysates (REP and CS); settings: Mab 19977 lysates, 10 μM probe
Description: as §1, §2, §3, §4, §5, §6, §7, §8, §9, §10, §11, §12

[18] = 0.5 μM enzyme, drug 30 min 37 °C, then 10 µM Bocillin FL
[19] = IC50 Ldt4, 0.5 μM enzyme, drug 30 min 37 °C, then 10 µM Bocillin FL

## NC(=O)[C@@H]1CC[C@@H]2CN1C(=O)N2OS(=O)(=O)O [AVI, avibactam]
DacB2 [1]
  inhibition of fluorescent ABP binding to DacB2: intermediate inhibition
Ldt4 [2]
  inhibition of fluorescent ABP binding to Ldt4: enhancement of Ldt4 binding by Mero-sCy5

## C[C@H]1[C@H](NC(=O)/C(=N\OC(C)(C)C(=O)O)c2csc(N)n2)C(=O)N1S(=O)(=O)O [AZT, aztreonam]
[3]
  inhibition of Mero-sCy5 labeling of targets in lysate: largely ineffective inhibitors
[4]
  inhibition of Mero-sCy5 labeling of targets in lysate: largely ineffective inhibitors

## CO[C@@]1(NC(=O)Cc2cccs2)C(=O)N2C(C(=O)O)=C(COC(N)=O)CS[C@@H]21 [FOX, cefoxitin]
[5]
  MIC: 64 µg/mL (≈ 150 µM)
[3]
  inhibition of Mero-sCy5 labeling of targets in lysate: inhibited many targets but not all
[6]
  MIC: 64 µg/mL (≈ 150 µM)
[4]
  inhibition of Mero-sCy5 labeling of targets in lysate: inhibited many targets but not all
Ldt4 [2]
  inhibition of fluorescent ABP binding to Ldt4: did not inhibit
MAB_0330 [7]
  inhibition of fluorescent ABP binding to MAB_0330: weakly inhibited
[8]
  MIC90: 64 µg/mL (≈ 150 µM)
[9]
  MIC90: 64 µg/mL (≈ 150 µM)
Ldt4 [10]; [18]
  IC50 Ldt4: did not inhibit
Ldt4 [10]; [19]
  IC50: > 1000 µM
MAB_0330 [11]; fit not accurate, error unacceptably large (± 180 μM IPM, ± 240 μM FOX)
  IC50: 270 µM
MAB_4800; [18]
  IC50: > 1000 µM
  IC50 MAB_4800: did not inhibit
DacB2 [12]
  IC50: 0.4 ± 0.9 µM
DacB2 [12]; IC50 comparison FOX vs IPM
  fold more potent inhibition of DacB2 than IPM: 5 fold
[13]
  fCss,avg (median unbound average steady-state plasma concentration): 4.0 µg/mL
PbpB; [18]
  IC50: 12 ± 4 µM

## C[C@@H](O)[C@H]1C(=O)N2C(C(=O)O)=C(SCCN=CN)C[C@H]12 [IPM, imipenem]
[5]
  MIC: 8 µg/mL (≈ 26.7 µM)
[3]
  inhibition of Mero-sCy5 labeling of targets in lysate: abolished ABP labeling
[6]
  MIC: 24 µg/mL (≈ 80.2 µM)
[4]
  inhibition of Mero-sCy5 labeling of targets in lysate: abolished ABP labeling
[8]
  MIC90: 16 µg/mL (≈ 53.4 µM)
[14]
  increased MIC in M9510 relative to 19977: 3 fold
[9]
  MIC90: 16 µg/mL (≈ 53.4 µM)
Ldt4 [10]; IC50 (best-fit value, example analysis Figure S8), Ldt4 with IPM, one experiment, 95% CI 1.796 to 11.10, R squared 0.8570
  IC50: 5.18 µM
Ldt4 [10]; [19]
  IC50: 4 ± 2 µM
Ldt4 [10]; Ldt4 with IPM, one experiment
  HillSlope (best-fit value, example analysis Figure S8): -1.416
MAB_0330 [11]
  IC50: 170 µM
MAB_4800
  IC50: 7 ± 3 µM
DacB2 [12]
  IC50: 2 ± 1 µM
[13]
  fCss,avg (median unbound average steady-state plasma concentration): 12.2 µg/mL
[15]
  IC50 for the four enzymes, in mass units: 0.5 to 2 µg/mL
PbpB
  IC50: 4 ± 2 µM
PbpB; IC50 comparison IPM vs FOX
  fold more potent inhibition of PbpB than FOX: 3 fold

## C[C@@H](O)[C@H]1C(=O)N2C(C(=O)O)=C(S[C@H]3C[C@@H](C(=O)N(C)C)N(C(=O)CCCCC[N+]4=C(/C=C/C=C/C=C5/N(C)c6ccc(S(=O)(=O)O)cc6C5(C)C)C(C)(C)c5cc(S(=O)(=O)[O-])ccc54)C3)[C@H](C)[C@H]12 [Mero-sCy5]
[16]
  targets labeled in gel-resolved lysate: labeled more targets than Bocillin FL
[17]
  targets labeled in gel-resolved lysate: labeled more targets than Bocillin FL

## CC1(C)S[C@@H]2[C@H](NC(=O)Cc3ccccc3)C(=O)N2[C@H]1C(=O)O [PEN, penicillin G]
[3]
  inhibition of Mero-sCy5 labeling of targets in lysate: largely ineffective inhibitors
[4]
  inhibition of Mero-sCy5 labeling of targets in lysate: largely ineffective inhibitors

## NCC[C@H](O)C(=O)N[C@@H]1C[C@H](N)[C@@H](O[C@H]2O[C@H](CN)[C@@H](O)[C@H](O)[C@H]2O)[C@H](O)[C@H]1O[C@H]1O[C@H](CO)[C@@H](O)[C@H](N)[C@H]1O [amikacin]
[5]
  susceptibility indicated by reported MIC: susceptible
[6]
  susceptibility indicated by reported MIC: susceptible

## CC1(C)S[C@@H]2[C@H](NC(=O)[C@H](N)c3ccc(O)cc3)C(=O)N2[C@H]1C(=O)O [amoxicillin]
[5]
  MIC: > 256 µg/mL
[6]
  MIC: > 256 µg/mL
